Read-outs that look alike come from different tables or passages of the source.
What was measured:
[1] = test system: PDE4H; details: cited from earlier work; for PDE4H/PDE4L ratio: literature values [23-26]
[2] = test system: PDE4; experiment: Assay I: inhibition of cyclic nucleotide PDE activity (cAMP hydrolysis by PDE4); type: biochemical; details: guinea pig PDE4; 1 μM cAMP substrate; mean±S.E.M.; read-out: PDE4L (IC50) on PDE4 activity
Description: Under a protocol approved by the Animal Care and Use Committee of Taipei Medical University, five male guinea pigs (Hartley), weighing 500-600 g, are sacrificed. The lungs (15 g) or hearts (4 g) taken therefrom are chopped into small pieces and homogenized with a glass/teflon homogenizer (Glas-Col, Terre Haute, Ind., USA) in 10 volumes of cold medium (pH 6.5) containing 20 mM Bis-tris, 2 mM benzamidine, 2 mM EDTA, 50 mM sodium chloride, 0.1 mM phenylmethanesulfonyl fluoride (PMSF), and 1 mM dithiothreitol. At 4 , the homogenate is centrifuged at 170 g for 15 min, and the supernatant thereof is then re-centrifuged at 40,000 g for 30 min. […] The column is washed with two bed volumes of homogenate buffer to remove unbound material, where the resin beads therein will bind with proteins, such as PDE proteins. Proteins bound to the Q-Sepharose beads are eluted with various concentrations (0.23, 0.34, 0.44, 0.69, and 1.00 M) of NaCl dissolved in homogenate buffer (for each concentration, 40-50 mL elution buffer are applied) at a flow rate of 30 ml/h. Fractions (3 ml each) are collected, and ethylene glycol (EG) is added thereto until a final concentration of 30% (v/v). And then the samples are frozen at […].
The activities of PDE4 in the homogenate are measured with a two-step procedure according to the method of Thompson and Appleman, using cAMP with [^3H]-cAMP or cGMP with [^3H]-cGMP as substrates. The PDE enzyme prepared (25 μl) with 10 μl inhibitor or the solvents therefor is incubated for 30 min at 37 °C in a total assay buffer, where the final volume of the assay is amounted to 100 μl. In accordance with the features of the PDE isozymes, the assay buffer contains 50 mM Tris/HCl (pH 7.4), 3 mM MgCl2, 1 mM dithiothreitol, and 0.05% BSA, and optionally contains 1 μM cAMP with 0.2 μCi [^3H]-cAMP as a substrate alone or in the presence of 0.1 unit calmodulin with 10 μM CaCl2, or 5 μM cGMP, and 1 μM cGMP with 0.2 μCi [^3,H]-cGMP as another substrate alone or in the presence of 0.1 unit calmodulin with 10 μM CaCl2.
The PDE enzyme and the inhibitors (or their solvent) therefor are mixed and incubated on ice for 30 min previously, and then mixed with the assay buffer. The assay is initiated by transferring the mixture to a water bath at 37 °C. Following the other 30 min incubation, the reaction is stopped by transferring the reaction vessel to a bath of boiling water for 3 min. After cooling on ice, 20 μl of the 1 mg/ml of Crotalus atrox venom is added to the reaction mixture, and the mixture is incubated at 37 °C for 10 min. The uncatalyzed substrates, such as cAMP, [^3H]-cAMP, cGMP, or [^3H]-cGMP are removed by the addition of 500 μl of a 1-in-1 Tris-HCl (40 mM) buffer suspension of Dowex resin (1×8-200) with incubation on ice for 30 min, since the bindings of the cyclic nucleotides and the resin. Each tube is then centrifuged for 2 min at 6000 rpm (3700 g), and 100 μl of the supernatant is removed and counted by a β-counter for calculating the enzyme (PDEs) activity.
The dissociation constant of inhibitor binding (Ki) value is determined from the equation of apparent Km as a function of the inhibitor concentration (insert in A and B, respectively). The slope of the equation is equal to the value of […] (where KM is Michaelis constant). The amounts of the total proteins are calculated based on the analytical method reported by Bradford. In FIGS. 1A to 1D, all enzyme activities are shown as nmole of substrate per mg of proteins per minute (nmole/mg/min) hydrolyzed.

[3] = target: T1, high affinity rolipram binding sites (HARBS) of the PDE4 (PDE4H); experiment: Assay II: replacement of [3H]-rolipram bound on particulate HARBS of whole brain; parameters: species or system guinea pig; details: guinea pig whole brain particulates, 2 nM [3H]-rolipram, mean±S.E.M., read-out: PDE4H (EC50) for replacing high-affinity [3H]-rolipram binding
T1 construct: other: guinea pig whole brain particulates; 2 nM [3H]-r; guinea pig whole brain particul
Description: (§1) The binding experiments are carried on basis of the methods of Schneider et al and Zhao et al with a small modification. Under a protocol approved by the Animal Care and Use Committee of Taipei Medical University, five male guinea pigs (Hartley), weighing 500-600 g, are anesthetized. The whole brains taken therefrom are homogenized with in 10 volumes of cold medium (pH 6.5) containing 20 mM Bis-tris, 2 mM benzamidine, 2 mM EDTA, 50 mM sodium chloride, 0.1 mM phenylmethanesulfonyl fluoride (PMSF), and 1 mM dithiothreitol. At 4[…], the homogenate is centrifuged at 170 g for 15 min for removing blood vessels and connective tissues, and the supernatant thereof is then re-centrifuged at 40,000 g for 30 min for separating the particulates from the cytosol of cells.
(§2) The final concentration of [^3H]-rolipram is 2 nM. […] After incubation, the reaction is stopped by transferring the reaction vessel to a bath of crashed ice. Then the reaction mixture is filtered through a punched glass fiber filter (Whatman GF/B) placed in a mini funnel, which is adopted to a 1.5 ml of Eppendorff's tube for collecting the filtrate in the mini centrifuge at 1000 rpm (100 g) for 10 seconds. By the same way (centrifugation), it is further washed with 0.3 ml reaction buffer each for three times. The Whatman GF/B filter is mixed with 2 ml of cocktail and counted by the β-scintillation counter (Backman, Fullerton, Calif., USA) for counting the radioactivity thereof.

[4] = test system: high affinity rolipram binding sites (HARBS) of the PDE4 (PDE4H); experiment: as above; parameters: species or system guinea pig; details: ratio of HARBS EC50 to PDE4 IC50
Description: as §1, §2

[5] = test system: PDE4; details: cited from earlier work

Row | SMILES | IC50 [2] [µM] | EC50 [3] [µM] | PDE4H/PDE4L ratio (EC50/IC50) [4] | further results
1 | O=C(Nc1c(Cl)cncc1Cl)C(=O)c1cn(Cc2ccc(F)cc2)c2ccc(O)cc12 [AWD-12-281, N-(3,5-dichloro-pyrid-4-yl)-[1-(4-fluorobenzyl)-5-hydroxy-indole-3-yl]-glyo xylic acid amide] |  |  |  | PDE4H/PDE4L ratio [1]: about 11
2 | COc1ccc(-c2coc3cc(O)cc(O)c3c2=O)cc1 [Biochanin A] | 8.5 ± 0.1 | > 300 | >35 | 
3 | COc1ccc(-c2cc(=O)c3c(O)cc(O)cc3o2)cc1O [Diosmetin] | 20.2 ± 2.4 |  |  | 
4 | O=c1c(-c2ccc(O)cc2)coc2cc(O)cc(O)c12 [Genistein] | 9.5 ± 1.9 | 47.8 ± 15.9 |  | IC50 ([5]; reported by Nichols and Morimoto [18], read-out: IC50 for PDE4 inhibition): 5 µM
5 | COc1ccc(C2CC(=O)c3c(OC(C)=O)cc(OC(C)=O)cc3O2)cc1OC(C)=O (stereo not drawn) [Hesperetin-5,7,3′-O-triacetate (HTA), Hesperetin-5,7,3′-O-triacetate] | 14.4 ± 1.8 | > 300 | >21 | 
6 | COc1cc(OC)c2c(c1)OC(c1ccc(OC)c(OC)c1)CC2=O (stereo not drawn) [Hesperetin-5,7,3′-O-trimethylether] | 9.4 ± 2.9 | 171 ± 32.9 | 18 | 
7 | COc1cc(O)c2c(c1)OC(c1ccc(OC)c(OC)c1)CC2=O (stereo not drawn) [Hesperetin-7,3′-O-dimethylether (HDME), Hesperetin-7,3′-O-dimethylether] | 3 ± 0.9 | 107 ± 39.5 | 35.5 | 
8 | COc1ccc(C2CC(=O)c3c(O)cc(O)cc3O2)cc1O (stereo not drawn) [Hesperetin] | 28.2 ± 1.1 | > 300 |  | 
9 | O=c1cc(-c2ccc(O)c(O)c2)oc2cc(O[C@@H]3O[C@H](CO)[C@@H](O)[C@H](O)[C@H]3O)cc(O)c12 [Luteolin-7-glucoside] |  | > 300 | >7 | 
10 | O=c1c(O)c(-c2cc(O)c(O)c(O)c2)oc2cc(O)cc(O)c12 [Myricetin] | 39.8 ± 2.1 | > 300 | >7.5 | 
11 | COc1cc(O)c2c(=O)c(-c3ccc(O)cc3)coc2c1 [Prunetin] | 61.9 ± 17.3 | > 300 | >4.8 | 
12 | COc1c(-c2ccc(O)c(O)c2)oc2cc(O)cc(O)c2c1=O [Qercetin-3-O-methylether (3-MQ), Qercetin-3-O-methylether] | 28.5 ± 5.8 | 17.4 ± 4 | 0.61 | 
13 | CC(=O)Oc1cc(OC(C)=O)c2c(=O)c(OC(C)=O)c(-c3ccc(OC(C)=O)c(OC(C)=O)c3)oc2c1 [Quercetin-3,5,7,3′,4′-O-pentaacetate] | 18.5 ± 4.6 | 82.8 ± 22.3 | 4.48 | 
14 | COc1cc(OC)c2c(=O)c(OC)c(-c3ccc(OC)c(OC)c3)oc2c1 [Quercetin-3,5,7,3′,4′-O-petamethylether] | 5.1 ± 1.4 | 56 ± 22.7 | 11 | 
15 | COc1cc(O)c2c(=O)c(OC)c(-c3ccc(OC)c(OC)c3)oc2c1 [Quercetin-3,7,3′,4′-O-tetramethylether] | > 100 | > 300 |  | 
16 | COc1cc(O)c2c(=O)c(OC)c(-c3ccc(OC)c(O)c3)oc2c1 [Quercetin-3,7,4′-O-trimethylether] | 15.8 ± 4.4 | > 300 | >19 | 
17 | COc1c(-c2ccc(OC(C)=O)c(OC(C)=O)c2)oc2cc(OC(C)=O)cc(OC(C)=O)c2c1=O [Quercetin-3-O-methyl-5,7,3′,4′-O-tetraacetate] | 3.9 ± 0.6 | 3.9 ± 1.4 | 1 | 
18 | O=c1c(O)c(-c2ccc(O)c(O)c2)oc2cc(O)cc(O)c12 [Quercetin] | 9.9 ± 2.5 | > 300 | >30 | 
19 | CCCCOc1cc(CC2CNC(=O)N2)ccc1OC (stereo not drawn) [Ro 20-1724, reference compound] | 8.7 ± 1.9 |  |  | EC50 ([3]; reference drugs): 0.087 ± 0.029 µM
20 | COc1ccc(C2CNC(=O)C2)cc1OC1CCCC1 (stereo not drawn) [Rolipram, reference compound] | […] |  | […] | EC50 ([1]; literature [23], read-out: EC50 for binding PDE4H): […]; PDE4H/PDE4L ratio [1]: […]; EC50 ([3]; reference drugs): 0.0052 ± 0.0019 µM; IC50 ([5]; literature [23], read-out: IC50 for binding PDE4L): […]
21 | COc1ccc([C@]2(C#N)CC[C@@H](C(=O)O)CC2)cc1OC1CCCC1 [cilomilast] |  |  |  | PDE4H/PDE4L ratio [1]: about 1
22 | O=C(Nc1c(Cl)cncc1Cl)c1ccc(OC(F)F)c(OCC2CC2)c1 [roflumilast] |  |  |  | PDE4H/PDE4L ratio [1]: 3
